The term Kd denotes the constant that tells how readily two partners part at equilibrium. Read a low Kd as tighter binding.

For assay [1], the target named is T1, EmBioE.
T1 construct: gene bioE; 6x His-tagged EmBioE
Nature of the assay: SPR, confirmed by MST; HPLC shows conversion to pimeloyl-CoA. In kind it is binding, Elizabethkingia meningoseptica. A general note: SPR reads the build-up and loss of mass on a sensor chip optically.

Assay [2] deals with T2, EmBioE (BioE).
T2 construct: 6x His-tagged EmBioE
Nature of the assay: SPR (Biacore, CM5 chip); supported by urea-PAGE inhibition of C18-ACP cleavage (Ki […]). In kind it is binding, Elizabethkingia meningoseptica.

As to `CCCCCCCCCCCCCCCCCC(=O)SCCNC(=O)CCNC(=O)[C@H](O)C(C)(C)COP(=O)(O)OP(=O)(O)OC[C@H]1O[C@@H](n2cnc3c(N)ncnc32)[C@H](O)[C@@H]1OP(=O)(O)O` [C18-CoA, stearoyl-CoA], the Kd in assay [1] is around 20.1 µM.
In turn, `C=CCn1c(SCC(=O)Nc2scc(-c3ccc(C)cc3)c2C(=O)OC)nnc1-c1ccc(N(C)C)cc1` [compound 466982, 466982] displayed a dissociation constant Kd in assay [2] of around 14.6 µM.

The values above are taken from publication PMC12915131, “Balanced Expression of the Diiron Oxygenase BioE Is Essential for Biotin Homeostasis in Elizabethkingia meningoseptica” (Advanced Science, 2025).
